According to patent publication US7803992B2, “Methods and compositions for expressing an herbicide-tolerant polynucleotide” (Pioneer Hi-Bred International, Inc., priority 2005, dated 2010):

What was measured:
Assay type in all cases: in vivo
[1] = tested on: parent elite stiff stalk inbred corn; assay: Preemergence herbicide application in greenhouse: fresh shoot weight and visual injury; settings: for pest or weed control at 200 g/ha: Zea mays, pre-emergence, 672 h, read-out: % Visual Injury; for Fresh Weight: fresh shoots weighed 4 weeks after treatment, untreated 36.7 g
[2] = tested on: parent elite stiff stalk inbred corn; assay: Postemergence herbicide application in greenhouse: fresh shoot weight and visual injury; settings: for pest or weed control at 200 g/ha: Zea mays, post-emergence, read-out: % Visual Injury; for Fresh Weight: weighed 2 weeks after treatment, untreated 76.4 g
[3] = tested on: Heterozygous GAT-HRA corn; assay: as above; settings: for pest or weed control at 200 g/ha: Zea mays, post-emergence, read-out: % Visual Injury; for Fresh Weight: weighed 2 weeks after treatment, untreated 98.8 g
[4] = tested on: Heterozygous GAT-HRA corn; assay: Preemergence herbicide application in greenhouse: fresh shoot weight and visual injury; settings: for pest or weed control at 200 g/ha: Zea mays, pre-emergence, 672 h, read-out: % Visual Injury; for Fresh Weight: fresh shoots weighed 4 weeks after treatment, untreated 47.0 g
[5] = preemergence, 200 g/ha, 0% no injury, 100% plant death, mean of four replications
[6] = preemergence, 200 g/ha, mean of four replications
[7] = postemergence, 200 g/ha (glyphosate 3472 g ae/ha, glufosinate ammonium 1870 g/ha), 0% no injury, 100% plant death, mean of four replications
[8] = postemergence, 200 g/ha (glyphosate 3472 g ae/ha, glufosinate ammonium 1870 g/ha), mean of four replications

Row | Compound | pest or weed control at 200 g/ha [1, 5] [%] | Fresh Weight [1, 6] [g] | pest or weed control at 200 g/ha [2, 7] [%] | Fresh Weight [2, 8] [g] | pest or weed control at 200 g/ha [3, 7] [%] | Fresh Weight [3, 8] [g] | pest or weed control at 200 g/ha [4, 5] [%] | Fresh Weight [4, 6] [g] | pest or weed control at 200 g/ha [1] [%] | pest or weed control at 200 g/ha ([2]; […]) [%] | pest or weed control at 200 g/ha ([3]; […]) [%] | pest or weed control at 200 g/ha [4] [%] | % Visual Injury [1, 5] [%] | % Visual Injury [2, 7] [%] | % Visual Injury [3, 7] [%] | % Visual Injury [4, 5] [%]
1 | COc1cc(OC)nc(NC(=O)NS(=O)(=O)c2cc(NC=O)ccc2C(=O)N(C)C)n1 [Foramsulfuron] | 5 | 30.6 | 28 | 62.5 | 8 | 80.6 | 7 | 39.1 | – | – | – | – | – | – | – | –
2 | COC(=O)c1c(Cl)nn(C)c1S(=O)(=O)NC(=O)Nc1nc(OC)cc(OC)n1 [Halosulfuron-methyl] | – | 28.9 | – | 58.1 | – | 94.5 | – | 40.1 | 30 | 14 | 8 | 15 | – | – | – | –
3 | COCc1cnc(C2=NC(C)(C(C)C)C(=O)N2)c(C(=O)O)c1 (centres unmarked) [Imazamox] | 99 | 0.8 | 100 | 2.2 | 4 | 90.9 | 13 | 47.5 | – | – | – | – | – | – | – | –
4 | CC(C)C1(C)N=C(c2nc3ccccc3cc2C(=O)O)NC1=O (centres unmarked) [Imazaquin] | – | 1.5 | – | 4.4 | – | 113.3 | – | 45.4 | 99 | 100 | 2 | 28 | – | – | – | –
5 | CCc1cnc(C2=NC(C)(C(C)C)C(=O)N2)c(C(=O)O)c1 (centres unmarked) [Imazethapyr] | 69 | 24.4 | 97 | 6.4 | 9 | 93.4 | 20 | 50.0 | – | – | – | – | – | – | – | –
6 | COC(=O)c1ccc(I)cc1S(=O)(=O)NC(=O)Nc1nc(C)nc(OC)n1 [Iodosulfuron-methyl Na^+, Iodosulfuron-methyl] | – | 24.4 | – | 3.5 | – | 95.0 | – | 52.5 | – | – | – | – | 92 | 100 | 1 | 5
7 | COc1cc(OC)nc(NC(=O)NS(=O)(=O)c2ncccc2C(=O)N(C)C)n1 [Nicosulfuron] | 43 | 33.6 | 24 | 62.7 | 0 | 94.7 | 0 | 50.3 | – | – | – | – | – | – | – | –
8 | COC(=O)c1ccccc1S(=O)(=O)NC(=O)Nc1nc(OC(F)F)cc(OC(F)F)n1 [Primisulfuron-methyl] | – | 19.5 | – | 16.6 | – | 101.0 | – | 37.9 | 68 | 75 | 5 | 7 | – | – | – | –
9 | CCCOc1nn(C(=O)NS(=O)(=O)c2ccccc2C(=O)OC)c(=O)n1C [Propoxycarbazone Na^+, Propoxycarbazone] | – | 0.6 | – | 1.9 | – | 101.2 | – | 46.7 | – | – | – | – | 100 | 100 | 9 | 100
10 | COc1nc(C)nc(NC(=O)NS(=O)(=O)c2ccccc2CCC(F)(F)F)n1 [Prosulfuron] | 68 | 20.9 | 25 | 53.6 | 29 | 91.3 | 9 | 43.3 | – | – | – | – | – | – | – | –
11 | CO/N=C(/C)c1cccc(Oc2nc(OC)cc(OC)n2)c1C(=O)OC [Pyriminobac-methyl] | – | 30.4 | – | 7.6 | – | 95.2 | – | 39.9 | 83 | 93 | 4 | 20 | – | – | – | –
12 | COc1cc(OC)nc(Sc2cccc(Cl)c2C(=O)[O-])n1.[Na+] [Pyrithiobac Na^+, Pyrithiobac] | – | 0.0 | – | 2.8 | – | 87.9 | – | 48.6 | – | – | – | – | 100 | 100 | 9 | 0
13 | COC(=O)c1ccccc1S(=O)(=O)NC(=O)Nc1nc(C)cc(C)n1 [Sulfometuron-methyl] | – | 0.0 | – | 2.0 | – | 104.5 | – | 47.3 | 100 | 100 | 2 | 6 | – | – | – | –
14 | CCS(=O)(=O)c1nc2ccccn2c1S(=O)(=O)NC(=O)Nc1nc(OC)cc(OC)n1 [Sulfosulfuron] | 100 | 1.0 | 97 | 4.0 | 3 | 105.5 | 18 | 50.6 | – | – | – | – | – | – | – | –
15 | COC(=O)c1sccc1S(=O)(=O)NC(=O)Nc1nc(C)nc(OC)n1 [Thifensulfuron-methyl] | 88 | 15.2 | 98 | 4.2 | 10 | 86.6 | 3 | 36.0 | – | – | – | – | – | – | – | –
16 | COc1nc(C)nc(NC(=O)NS(=O)(=O)c2ccccc2OCCCl)n1 [Triasulfuron] | 89 | 14.1 | 97 | 6.4 | 6 | 90.3 | 12 | 47.7 | – | – | – | – | – | – | – | –
17 | COc1cc(OC)nc(NC(=O)NS(=O)(=O)c2ncccc2OCC(F)(F)F)n1 [Trifloxysulfuron Na^+, Trifloxysulfuron] | – | 0.0 | – | 1.0 | – | 86.6 | – | 50.8 | – | – | – | – | 100 | 100 | 29 | 0
18 | COC(=O)c1cccc(C)c1S(=O)(=O)NC(=O)Nc1nc(OCC(F)(F)F)nc(N(C)C)n1 [Triflusulfuron-methyl] | – | 26.3 | – | 2.1 | – | 110.9 | – | 53.5 | – | – | – | – | 100 | 100 | 8 | 5
19 | Imazamethabenz-methyl | – | 36.2 | – | 66.9 | – | 95.0 | – | 48.5 | – | – | – | – | 61 | 11 | 16 | 15
